The values below come from the SangsterLogP compilation.

Experiment in data set [1]: not given
The source holds these as a separate data set.

Experiment in data set [2]: not given
The source holds these as a separate data set.

The nature of data set [3]: method code SF-AS, from DOI: 10.1128/jb.153.1.232-240.1983, PMID: 6294048.
Experiment in data set [4]: not given
This is another data set of the same source.

Experiment in data set [5]: not given
This is another data set of the same source.

Data set [6] in a line: method code SF-HPLC, from DOI: 10.1002/ps.2780280108.
Data set [7] is described as follows: method code SF-AS, from THAKUR, B.; Mehta, U.; TIPNIS, P. (1981). Ortho effect in partition coefficients of some o-benzyloxybenzamides. Indian J Pharm Sci, 43(6)224-226.
Data set [8] in a line: method code SF-AS, from DOI: 10.1248/cpb.32.5003, PMID: 6534549.
The nature of data set [9]: method code SF-HPLC, from DOI: 10.1002/ps.2780170106.
Experiment in data set [10]: not given
This is another data set of the same source.

A short description of data set [11]: method code SF, from DOI: 10.1023/a:1016286026462, PMID: 8570535.
The nature of data set [12]: method code RP-HPLC, from DOI: 10.2166/wqrj.1987.010. As to conditions: pH 7.0.
Data set [13] is described as follows: method code SF-AS, from Busch, N.; Moleyre, J.; Bondivenne, R.; Labrid, C. (1973). Study of the predictive value of the Hansch correlation equations for a series of beta-alkoxy-beta-phenylethyl pyrrolidines. Chimica ….
The nature of data set [14]: method code SF, from DOI: 10.1021/jm00237a002, PMID: 1133810. Particulars: pH 7.2.
Experiment in data set [15]: not given
The source holds these as a separate data set.

Experiment in data set [16]: not given
The source holds these as a separate data set.

Experiment in data set [17]: not given
The source holds these as a separate data set.

Data set [18] is described as follows: method code SF-HPLC, from DOI: 10.1016/j.ejpb.2006.11.002, PMID: 17182232. As to conditions: pH 7.4.
Experiment in data set [19]: not given
The source holds these as a separate data set.

Data set [20] in a line: method code SF-HPLC, from DOI: 10.1021/jm00112a026, PMID: 1875345. As to conditions: pH 7.4.
Data set [21] can be described thus: method code SF-AS/HPLC, from Ellington, J. J. (1988). Octanol/water partition coefficients for evaluation of hazardous waste land disposal: Selected chemicals. US Environmental Protection Agency, Environmental Research ….
Data set [22] can be described thus: method code SF-AS, from DOI: 10.1023/a:1016392123137, PMID: 24272811.
Data set [23] is described as follows: method code SF-AS, from Schaper, J. (1979). Simultaneous determination of electronic and lipophilic properties of acids and bases by nonlinear regression analysis of pH-dependent partition measurements. J. Chem. Research ….
The nature of data set [24]: method code SF-AS, from DOI: 10.1248/cpb.32.4084, PMID: 6099228. Particulars: pH 7.4.
Data set [25] in a line: method code SF-HPLC, from DOI: 10.1023/a:1015924724973, PMID: 2762226. Particulars: pH 7.4.
A short description of data set [26]: method code SF, from DOI: 10.1021/jm00114a024, PMID: 1920362.
Experiment in data set [27]: not given
The source holds these as a separate data set.

Experiment in data set [28]: not given
The source holds these as a separate data set.

Data set [29] in a line: method code SF-HPLC, from DOI: 10.1016/j.ejpb.2012.12.004, PMID: 23262162.
Experiment in data set [30]: not given
This is another data set of the same source.

A short description of data set [31]: method code SF-HPLC, from PMID: 1515051. Particulars: pH 6.0.

The logP is the decadic logarithm of the partition coefficient of the neutral form, usually between octanol and water. Take `CS(=O)(=O)c1ccc([C@@H](O)[C@@H](CO)NC(=O)C(Cl)Cl)cc1`: the logP was 0.15.
On to `c1ccc(Cc2nc3ccccc3[nH]2)cc1`, for which the logP in data set [1] amounted to 4.16.
`Nc1ccc(S(=O)(=O)Nc2ccc(S(N)(=O)=O)cc2)cc1` displayed a logP in [2] of 0.35.
What is called logD is the decadic logarithm of the distribution of all forms, ionised or not, between an organic phase and buffer at a given pH. A higher logD goes with a more lipophilic compound. Turning to `CC(=O)OCC1=C(C(=O)O)N2C(=O)C(NC(=O)Cc3cc4ccccc4s3)C2SC1` (centres undefined), the log distribution coefficient (logD) in [3] (pH 3.0) is 1.68.
`CCOP(=O)(Sc1ccccc1)Sc1ccccc1` showed a logP in data set [4] of 3.68.
For `S=C=NCc1ccc2ccccc2c1`, in data set [5], the logP was determined as 4.42.
Turning to `COC(=O)c1c(C)[nH]c(-c2ccc(Cl)cn2)c1C(=O)OC`, the logP in data set [6] came out at 2.7.
`NC(=O)c1ccccc1OCc1ccc([N+](=O)[O-])cc1` came in with a logP in data set [7] of 1.73.
`O=C(Cc1ccccc1)Nc1ccccc1F` came in with a logP in data set [8] of 2.62.
In turn, `N#CCCOc1cccc2ccccc12` came in with a logD in data set [9] (pH 6.4) of 2.8.
On to `Clc1ccc(-c2ccc(Cl)cc2Cl)cc1`, for which the logP in [10] was found to be 5.62.
`Oc1cc(Cl)ccc1Oc1ccc(Cl)cc1Cl` showed a logP in data set [11] of 4.53.
`Clc1ccccc1-c1ccccc1Cl` came in with a logP in [10] of 4.8.
`Clc1ccccc1C(c1ccccc1)(c1ccccc1)n1ccnc1` yielded a logP of 4.75.
Take `CNC(=O)Oc1cccc2c1OC(C)(C)C2`: the logD in data set [12] stood at 1.88.
With `OC(CN1CCCC1)c1ccccc1` (centres undefined), the logP in [13] was 1.38.
On to `CCOc1cnc(NS(=O)(=O)c2ccccc2)nc1`, for which the logD in [14] amounted to 0.53.
Take `Brc1cc(Br)cc(-c2cc(Br)cc(Br)c2)c1`: in data set [15], the logP was 7.41.
Compound `COc1ccc(C=CC(=O)OCCC(C)C)cc1` returned a logP in data set [11] of 4.83.
`O=C(Cc1ccccc1)Nc1ccccc1O` showed a lipophilicity (logP) in data set [8] of 2.4.
Compound `Cc1ccc(Cl)c(NS(=O)(=O)c2nc(C)n(-c3ncccn3)n2)c1Cl` gave a logP in data set [16] of 3.
Regarding `O=C(O)CCOc1cccc2ccccc12`, the logD in data set [9] (pH 2.0) was 3.
As to `CCN(CC)CCSCc1ccccc1`, the logP in data set [17] was 2.66.
In data set [6], `COC(=O)c1c(C)[nH]c(-c2cccc(Cl)n2)c1C(=O)OC` had a logP of 2.65.
In [14], `CCc1cnc(NS(=O)(=O)c2ccccc2)nc1` registered a logD of 0.88.
As to `COC(=O)C(NC(=O)c1cccnc1)n1cc(F)c(=O)[nH]c1=O` (centres undefined), in data set [18], the logD is -0.12.
Regarding `COc1ccc2nc(C3=N[C@@H](C(=O)O)CS3)sc2c1`, the logP in data set [19] was found to be 1.16.
For the compound `COC(CN1CCCC1)c1ccccc1` (centres undefined), in data set [13], the logP was 1.88.
`CCOC(=O)C1CCC2C(C1)N2CC(O)Cn1ccnc1` (centres undefined) came in with a logD in [20] of 1.13.
As for `Clc1ccc(-c2ccc(Cl)c(Cl)c2)cc1Cl`, the logP in data set [15] amounted to 6.04.
Regarding `Cc1cc(Cl)ccc1OCC(=O)OCCCCCC(C)C`, the logD in [12] is 6.69.
In [21], `C/C=C(/C)C(=O)O[C@H]1CCN2CC=C(COC(=O)[C@@](O)([C@H](C)OC)C(C)(C)O)[C@H]12` returned a logP of 1.28.
In data set [21], `O=[N+]([O-])c1cc(C2CCCCC2)c(O)c([N+](=O)[O-])c1` yielded a logP of 4.12.
On to `CCOC(=O)C(NC(=O)c1cccnc1)n1cc(F)c(=O)[nH]c1=O` (centres undefined), for which, in data set [18], the logD was determined as 0.21.
`Cc1ccc2ccc3ccc(C)nc3c2n1` showed a logP in data set [22] of 2.46.
Compound `CN(C)c1ccc(NS(=O)(=O)c2ccc(N)cc2)cc1` returned a logP in data set [23] of 1.57.
Compound `COc1ccc(NC(=O)CN2CCCCC2)cc1` gave a logD in [24] of 2.52.
`N[C@@H](Cc1ccc(O)c(O)c1)C(=O)OCCCCO`: in data set [25], the logD is -0.46.
`Cc1ccc2c(N)nc(-c3ccccn3)cc2c1` gave a logD in data set [22] (pH 6.0) of 3.04.
`CNCCN(C)S(=O)(=O)c1ccc(CONC(N)=O)c([N+](=O)[O-])c1` registered a logP in [26] of 0.45.
Compound `c1ccc2c(c1)ccc1cc3ccc4ccccc4c3nc12` came in with a logP in data set [27] of 6.42.
In data set [25], `CCCCOC(=O)[C@@H](N)Cc1ccc(O)c(O)c1` registered a logD of 1.19.
`O=C(CN1CCCCC1)Nc1ccc(Cl)c(Cl)c1` registered a logD in data set [24] of 3.65.
In [28], `CN1C(C(=O)Nc2ccccn2)=C(O)c2sccc2S1(=O)=O` had a logP of 1.9.
As to `CCCc1nc(S(=O)(=O)Nc2c(F)cccc2F)nn1-c1ccccc1`, the logP in data set [16] stood at 4.2.
`Oc1ccc(/C=C/c2cc(O)cc(O)c2)cc1`: in [29], the logP turned out to be 2.56.
In [27], `c1ccc2c(c1)Cc1ccccc1-2` came in with a logP of 4.2.
`S=C=Nc1ccc(-c2ccc(N=C=S)cc2)cc1` registered a logP in data set [5] of 5.5.
Compound `CC(C)OP(=O)(OC(C)C)SCc1ccccc1` had a logP in data set [4] of 3.43.
In data set [20], `OC(CN1C2C3CCC(C3)C21)Cn1ccnc1` (centres undefined) returned a pH-dependent lipophilicity (logD) of 1.6.
`Cc1ccc(COc2ccccc2C(N)=O)cc1` gave a logP in data set [7] of 1.86.
On to `Nc1ccc(S(=O)(=O)Nc2ccccc2)cc1`, for which, in data set [2], the logP is 1.55.
`Cc1c(C)c2c(c(C)c1O)CCC(C)(C(=O)O)O2` (centres undefined): the logP in data set [29] was 2.61.
As for `Cc1nnc(SCC2=C(C(=O)O)N3C(=O)[C@@H](NC(=O)Cn4cnnn4)[C@H]3SC2)s1`, in [3], the logP is -0.24.
With `Cc1ccc(NS(=O)(=O)c2ccc(N)cc2)cc1`, in data set [23], the logP worked out at 2.11.
Consider `C=CCC(CC=C)(C(N)=O)c1ccc2c(c1)OCO2`, for which the logP in data set [30] turned out to be 2.1.
Consider `c1ccc2[nH]c(SCCC3CCCCC3)nc2c1`, for which, in data set [1], the logP was 4.5.
On to `CCC(CC)(C(N)=O)c1ccc2c(c1)OCO2`, for which the logP in [30] came to 1.59.
In turn, `CC(C)(C)NC(=O)[C@@H]1CN(Cc2cccnc2)CCN1C[C@@H](O)C[C@@H](Cc1ccccc1)C(=O)N[C@H]1c2ccccc2C[C@H]1O` showed a logP in data set [28] of 2.79.
`CN1CC(NC(=O)CSC(=O)c2ccccc2)CC2c3cccc4[nH]cc(c34)CC21` (centres undefined): the logP in [17] was 1.9.
Consider `COC(=O)[C@H]1CSC(c2nc3ccc(O)cc3s2)=N1`, for which the lipophilicity (logP) in data set [19] is 2.23.
With `CC(C)COC(=O)n1c(-c2cscn2)nc2ccccc21`, the logD in data set [31] amounted to 3.46.
On to `CCOC(=O)n1c(-c2cscn2)nc2ccccc21`, for which, in [31], the logD worked out at 2.51.
Compound `CN(C)CCN(C)S(=O)(=O)c1ccc(C(C)(C)[N+](=O)[O-])c([N+](=O)[O-])c1` came in with a logP in [26] of 1.42.
